Test results reported in patent publication US20260158152A1, “SPLICING MODULATOR ANTIBODY-DRUG CONJUGATES AND METHODS OF USE” (EISAI R&D MANAGEMENT CO., LTD., priority 2018, published 2026).

How the values were obtained:
[1] = tested on: PC3 cells; assay: Cell viability, EPHA2-expressing PC3; format: cell-based; details: free payload of the ADC
[2] = tested on: MOLP8 cells; assay: Cell viability, CD138-expressing MOLP8; format: cell-based; details: unconjugated payload of the ADC
[3] = Caco-2 permeability of ADC payload; format: in vitro ADME; details: human, Caco-2; payload, apical to basolateral, 2 hours; read-out: Permeability Mean Caco-2 A-B Perm (10e−6 cm/s)
[4] = tested on: N87 cells; assay: Cell viability CellTiter-Glo, N87; format: cell-based, human; details: unconjugated payload of the ADC
[5] = tested on: Ad2.1 pre-mRNA splicing; assay: In vitro splicing (IVS) RT-qPCR, Ad2.1 pre-mRNA in HeLa S3 nuclear extract; format: biochemical; details: payload of the ADC; read-out: qPCR-IVS-ATS GMean IC50 (nM) Ad2.1
Experimental: To evaluate payload activity in a cell-free system, an in vitro splicing assay was performed. The payloads were incubated with nuclear extracts and pre-mRNA substrate minigenes.
HeLa nuclear extract preparation: HeLa S3 cell pellets were resuspended in hypotonic buffer (10 mM HEPES PH 7.9, 1.5 mM MgCl2, 10 mM KCl, 0.2 mM PMSF, 0.5 mM DTT) and the suspension was brought up to a total of 5 packed cell volume (PCV). After centrifugation, the supernatant was discarded, and the cells were brought up to 3 PCV with hypotonic buffer and incubated on ice for 10 min. Cells were lysed using a dounce homogenizer and then centrifuged. […]. The nuclei were gently mixed for 30 min before centrifuging. The supernatant (nuclear extract) was then dialyzed into storage buffer (20 mM HEPES pH 7.9, 100 mM KCl, 0.2 mM EDTA, 20% glycerol, 0.2 mM PMSF, 0.5 mM DTT). Protein concentration was determined using NanoDrop 8000 UV-Vis spectrophotometer (ThermoFisher Scientific).
IVS: All Ad2-derived sequences (Pellizzoni et al. (1998) Cell 95 (5): 615-24) were cloned into pcDNA3.1(+) vector (Promega) using 5′ EcoRI and 3′ XbaI restriction sites. The plasmids were linearized using XbaI and used as DNA templates in in vitro transcription reactions. The FtzΔi intron-less plasmid (Luo and Reed (1999) 96 (26): 14937-42) was linearized using EcoRI. […]

[6] = tested on: THP1.1; assay: Payload cell potency and lethality CellTiter-Glo, THP1; format: cell-based; details: payload of the ADC
Experimental: Each concentration was tested in triplicate. […] Values represent time zero (TO).

| Papp A→B at 2 h, 10 µM [3] [×10⁻⁶ cm/s] | SMILES | Payload Rmin [1] [%] | Payload Rmin (%) [2] [%] | Payload Rmin (%) [4] [%] | IC50 [5] [nM] | Payload cell lethality: CT..-ATS GMean LD50 (nM) THP1.1 [6] [nM] |
| --- | --- | --- | --- | --- | --- | --- |
| 0.08 | CC(=O)N1CCC(n2nnc3c(F)cc(/C=C(\C)[C@H]4OC(=O)C[C@H](O)CC[C@H](C)[C@@H](OC(=O)N5CCNCC5)/C=C/[C@@H]4C)cc32)CC1 [D14] | −79.835 | −6.1 | −52.662 |  |  |
|  | C/C(=C\c1cc(F)cc(N2CCN(C(=O)Cn3cccn3)CC2)c1)[C@H]1OC(=O)C[C@H](O)CC[C@H](C)[C@@H](OC(=O)N2CCNCC2)/C=C/[C@@H]1C [D16] |  |  |  | 18 | 21.48 |
